From paper PMC4503722, “Novel Phenotypic Outcomes Identified for a Public Collection of Approved Drugs from a Publicly Accessible Panel of Assays” (PLoS ONE, 2015)
Where two headings read alike, the source gives them in different places.

What was measured:
[1] = tested on: ECFC/ADSC co-culture cell nuclei number; conditions: for IC50: read-out: VEGF_ADSC\ECFC Angio Hoechst NucArea summarized IC50
[2] = tested on: endothelial tube formation in co-cultures of ECFCs and ADSCs treated with VEGF; assay: cells; assay type: cell-based, human; conditions: for IC50: read-out: VEGF_ADSC\ECFC Angio CD31 TubeArea summarized IC50
HeLa cells = assay: cells; assay type: cell-based;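 on Hela CellCycMod PI 4N summarized IC50: value tracks stimulation of 4N DNA content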
hKDR = target: T1, hKDR (Homo sapiens, UniProt P35968); assay: Cerep LANCE kinase assay hKDR (S1 assay 32); assay type: biochemical
T1 construct: purchased Cerep (LANCE kinase assay platform, contract assay)

hJAK2 = target: T2, hJAK2 (Homo sapiens, UniProt O60674); assay: Cerep LANCE kinase assay hJAK2 (S1 assay 33); assay type: biochemical
T2 construct: purchased Cerep (LANCE kinase assay platform, contract assay)

hp70S6K1 (RPS6KB1) = target: T3, hp70S6K1 (RPS6KB1) (Homo sapiens, UniProt P23443); assay: Cerep LANCE kinase assay hp70S6K1 (S1 assay 31); assay type: biochemical
T3 construct: purchased Cerep (LANCE kinase assay platform, contract assay)

hGSK3b = target: T4, hGSK3b (Homo sapiens, UniProt P49841); assay: Cerep LANCE kinase assay hGSK3b (S1 assay 34); assay type: biochemical
T4 construct: purchased Cerep (LANCE kinase assay platform, contract assay)

hFLT3 = target: T5, hFLT3 (Homo sapiens, UniProt P36888); assay: Cerep LANCE kinase assay hFLT3 (S1 assay 35); assay type: biochemical
T5 construct: purchased Cerep (LANCE kinase assay platform, contract assay)

DLD-1 = assay: cells; assay type: cell-based; conditions: assay number 23; for IC50: read-out: Basal_Viability ATP DLD-1 summarized IC50
HT-29 = assay: cells; assay type: cell-based; conditions: assay number 28; for IC50: read-out: Basal_Viability ATP HT-29 summarized IC50
SW480 = assay: cells; assay type: cell-based; conditions: assay number 24; for IC50: read-out: Basal_Viability ATP SW480 summarized IC50
SNU-C1 = assay: cells; assay type: cell-based; conditions: assay number 30, basal; for IC50: read-out: Basal_Viability ATP SNU-C1 summarized IC50
RKO = assay: cells; assay type: cell-based; conditions: assay number 29; for IC50: read-out: Basal_Viability ATP RKO summarized IC50
HCT116 = assay: cells; assay type: cell-based; conditions: assay number 25, basal; for IC50: read-out: Basal_Viability ATP HCT116 summarized IC50
Colo320 = assay: cells; assay type: cell-based; conditions: assay number 27; for IC50: read-out: Basal_Viability ATP Colo 320 summarized IC50
[3] = tested on: HCT116 cells treated with a GSK3β inhibitor; assay: cells; assay type: cell-based; conditions: assay number 26; GSK3b inhibitor pretreated; read-out: GSK3b inh pretreated_Viability ATP HCT116 summarized IC50
[4] = assay number 14, 2N, read-out: Hela CellCycMod PI 2N summarized IC50
[5] = assay number 16, 4N, read-out: Hela CellCycMod PI 4N summarized IC50
[6] = assay number 17, MI, read-out: Hela CellCycMod PI MI summarized IC50
[7] = assay number 18, cell number, read-out: Hela CellCycMod PI Cell Number summarized IC50
[8] = assay number 32, read-out: hKDR LANCE summarized IC50
[9] = assay number 33, read-out: hJAK2 LANCE summarized IC50
[10] = assay number 31, read-out: hp70S6K1 LANCE summarized IC50
[11] = assay number 34, read-out: hGSK3b LANCE summarized IC50
[12] = assay number 35, read-out: hFLT3 LANCE summarized IC50
[13] = assay number 15, S phase, read-out: Hela CellCycMod PI S Phase summarized IC50

T4 sequence (P49841 whole entry): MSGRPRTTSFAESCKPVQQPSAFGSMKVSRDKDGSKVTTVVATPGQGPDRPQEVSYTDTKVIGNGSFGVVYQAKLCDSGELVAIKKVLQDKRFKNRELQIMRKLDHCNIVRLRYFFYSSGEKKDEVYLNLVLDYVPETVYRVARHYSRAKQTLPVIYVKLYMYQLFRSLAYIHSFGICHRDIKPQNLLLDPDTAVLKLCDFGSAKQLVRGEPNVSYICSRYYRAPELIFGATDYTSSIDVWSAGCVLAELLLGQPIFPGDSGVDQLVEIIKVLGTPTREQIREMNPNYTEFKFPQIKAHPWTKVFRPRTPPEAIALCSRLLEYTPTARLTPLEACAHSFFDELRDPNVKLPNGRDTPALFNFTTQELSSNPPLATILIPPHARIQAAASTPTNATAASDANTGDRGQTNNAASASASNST
T5 sequence (P36888 27-993): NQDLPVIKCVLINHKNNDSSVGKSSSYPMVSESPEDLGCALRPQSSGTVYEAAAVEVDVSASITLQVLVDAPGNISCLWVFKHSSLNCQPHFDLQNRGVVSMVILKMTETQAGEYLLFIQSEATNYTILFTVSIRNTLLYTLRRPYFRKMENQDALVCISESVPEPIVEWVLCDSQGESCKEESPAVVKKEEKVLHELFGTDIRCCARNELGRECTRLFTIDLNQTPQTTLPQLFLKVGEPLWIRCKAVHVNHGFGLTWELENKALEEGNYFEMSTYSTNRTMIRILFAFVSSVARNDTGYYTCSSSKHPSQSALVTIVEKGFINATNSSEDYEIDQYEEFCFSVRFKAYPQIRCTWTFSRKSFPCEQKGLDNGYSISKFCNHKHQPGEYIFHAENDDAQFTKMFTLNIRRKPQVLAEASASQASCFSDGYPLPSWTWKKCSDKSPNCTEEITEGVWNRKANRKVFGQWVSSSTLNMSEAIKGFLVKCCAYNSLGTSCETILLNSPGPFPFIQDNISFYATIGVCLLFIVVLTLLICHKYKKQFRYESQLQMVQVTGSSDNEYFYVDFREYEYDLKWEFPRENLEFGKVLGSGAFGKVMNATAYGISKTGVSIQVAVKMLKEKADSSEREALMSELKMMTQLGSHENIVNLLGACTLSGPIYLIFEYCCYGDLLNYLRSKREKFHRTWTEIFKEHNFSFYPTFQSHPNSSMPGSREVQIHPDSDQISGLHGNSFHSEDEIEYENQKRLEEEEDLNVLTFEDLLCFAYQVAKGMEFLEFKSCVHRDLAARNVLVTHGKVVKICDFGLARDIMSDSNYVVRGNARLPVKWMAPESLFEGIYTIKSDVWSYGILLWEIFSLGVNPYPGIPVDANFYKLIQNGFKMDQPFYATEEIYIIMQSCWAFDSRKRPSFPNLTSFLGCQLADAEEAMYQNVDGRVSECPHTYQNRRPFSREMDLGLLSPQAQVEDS
T1 sequence (P35968 20-1356): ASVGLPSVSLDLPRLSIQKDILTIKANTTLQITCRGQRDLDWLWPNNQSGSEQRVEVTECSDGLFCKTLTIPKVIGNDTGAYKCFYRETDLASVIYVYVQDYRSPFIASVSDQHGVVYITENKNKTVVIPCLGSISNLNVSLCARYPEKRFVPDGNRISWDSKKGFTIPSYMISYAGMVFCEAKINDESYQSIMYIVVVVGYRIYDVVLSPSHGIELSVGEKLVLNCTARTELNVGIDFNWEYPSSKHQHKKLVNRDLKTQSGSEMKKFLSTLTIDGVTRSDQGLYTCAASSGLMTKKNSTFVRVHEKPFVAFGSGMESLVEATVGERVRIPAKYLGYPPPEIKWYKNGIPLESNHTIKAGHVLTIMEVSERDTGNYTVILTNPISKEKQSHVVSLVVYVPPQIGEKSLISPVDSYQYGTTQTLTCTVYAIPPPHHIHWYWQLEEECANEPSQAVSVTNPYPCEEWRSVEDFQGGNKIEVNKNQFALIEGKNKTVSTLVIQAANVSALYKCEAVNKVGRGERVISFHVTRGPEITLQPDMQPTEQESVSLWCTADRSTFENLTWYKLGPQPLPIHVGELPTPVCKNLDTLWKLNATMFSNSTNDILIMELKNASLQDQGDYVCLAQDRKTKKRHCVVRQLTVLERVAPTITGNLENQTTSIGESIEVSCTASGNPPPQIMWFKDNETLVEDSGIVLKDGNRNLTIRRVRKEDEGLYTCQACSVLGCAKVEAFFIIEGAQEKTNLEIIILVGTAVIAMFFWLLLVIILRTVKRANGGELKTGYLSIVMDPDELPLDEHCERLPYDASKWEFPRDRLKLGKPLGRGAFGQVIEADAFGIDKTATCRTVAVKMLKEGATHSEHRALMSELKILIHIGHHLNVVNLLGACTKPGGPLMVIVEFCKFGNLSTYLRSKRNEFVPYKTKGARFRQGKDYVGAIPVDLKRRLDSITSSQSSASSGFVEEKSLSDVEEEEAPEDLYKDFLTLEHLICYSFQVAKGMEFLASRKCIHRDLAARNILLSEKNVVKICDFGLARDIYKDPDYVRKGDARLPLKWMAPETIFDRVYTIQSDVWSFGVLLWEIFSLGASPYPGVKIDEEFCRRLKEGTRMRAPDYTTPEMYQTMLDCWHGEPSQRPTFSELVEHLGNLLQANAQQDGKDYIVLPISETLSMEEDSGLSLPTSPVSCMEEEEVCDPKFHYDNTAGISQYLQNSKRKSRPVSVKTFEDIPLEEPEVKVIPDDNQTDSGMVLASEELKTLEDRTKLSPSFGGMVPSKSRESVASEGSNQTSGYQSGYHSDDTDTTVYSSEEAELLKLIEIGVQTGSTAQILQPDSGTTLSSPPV
T3 sequence (P23443 whole entry): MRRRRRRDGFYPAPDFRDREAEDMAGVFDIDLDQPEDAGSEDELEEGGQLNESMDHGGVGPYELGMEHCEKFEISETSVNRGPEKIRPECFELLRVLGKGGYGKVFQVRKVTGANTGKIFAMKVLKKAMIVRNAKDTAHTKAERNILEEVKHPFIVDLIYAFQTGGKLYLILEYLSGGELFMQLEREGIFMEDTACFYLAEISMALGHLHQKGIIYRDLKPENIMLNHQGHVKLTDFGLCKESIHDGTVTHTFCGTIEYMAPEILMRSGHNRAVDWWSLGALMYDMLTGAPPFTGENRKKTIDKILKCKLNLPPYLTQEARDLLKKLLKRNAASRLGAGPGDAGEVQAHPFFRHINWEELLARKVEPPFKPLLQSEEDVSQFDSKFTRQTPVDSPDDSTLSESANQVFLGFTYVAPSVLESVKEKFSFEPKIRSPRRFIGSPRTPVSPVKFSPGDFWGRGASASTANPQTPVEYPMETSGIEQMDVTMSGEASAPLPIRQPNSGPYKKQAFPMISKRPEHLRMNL
T2 sequence (O60674 whole entry): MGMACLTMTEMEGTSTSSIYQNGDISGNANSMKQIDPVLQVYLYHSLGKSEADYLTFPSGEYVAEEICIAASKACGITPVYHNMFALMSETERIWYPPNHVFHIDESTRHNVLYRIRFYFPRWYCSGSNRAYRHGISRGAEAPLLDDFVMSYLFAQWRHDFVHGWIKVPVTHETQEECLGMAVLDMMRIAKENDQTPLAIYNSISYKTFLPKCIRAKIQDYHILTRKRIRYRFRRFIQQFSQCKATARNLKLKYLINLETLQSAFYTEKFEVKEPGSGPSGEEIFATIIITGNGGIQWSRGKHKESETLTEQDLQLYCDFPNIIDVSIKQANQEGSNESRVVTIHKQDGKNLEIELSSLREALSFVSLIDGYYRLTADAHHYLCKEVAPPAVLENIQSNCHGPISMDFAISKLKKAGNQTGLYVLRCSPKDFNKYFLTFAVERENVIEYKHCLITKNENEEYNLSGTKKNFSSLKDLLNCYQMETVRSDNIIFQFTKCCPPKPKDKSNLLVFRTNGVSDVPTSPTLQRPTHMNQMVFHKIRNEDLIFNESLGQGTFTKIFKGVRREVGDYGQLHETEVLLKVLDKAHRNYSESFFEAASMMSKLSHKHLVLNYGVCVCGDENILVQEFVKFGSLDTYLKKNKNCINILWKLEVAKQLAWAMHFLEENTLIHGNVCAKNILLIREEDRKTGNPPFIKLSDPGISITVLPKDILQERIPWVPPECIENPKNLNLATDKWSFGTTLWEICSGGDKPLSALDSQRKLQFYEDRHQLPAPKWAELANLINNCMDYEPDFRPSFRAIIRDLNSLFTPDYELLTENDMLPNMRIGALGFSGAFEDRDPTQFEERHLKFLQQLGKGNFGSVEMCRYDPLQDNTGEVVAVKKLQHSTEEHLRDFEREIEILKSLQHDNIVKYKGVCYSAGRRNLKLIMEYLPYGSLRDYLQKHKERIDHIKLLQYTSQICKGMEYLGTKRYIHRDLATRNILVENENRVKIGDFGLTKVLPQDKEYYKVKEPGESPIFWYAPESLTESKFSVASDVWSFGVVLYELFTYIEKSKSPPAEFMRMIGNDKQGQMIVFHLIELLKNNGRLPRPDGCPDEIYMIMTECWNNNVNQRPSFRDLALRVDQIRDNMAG

| Compound | VEGF_ADSC\ECFC Angio Hoechst NucArea IC50/EC50 [1] [µM] | VEGF_ADSC\ECFC Angio CD31 TubeArea IC50/EC50 [2] [µM] | Hela CellCycMod PI 2N IC50/EC50 (HeLa cells; assay number 14, 2N) [µM] | Hela CellCycMod PI S Phase IC50/EC50 (HeLa cells; assay number 15, S phase) [µM] | Hela CellCycMod PI 4N IC50/EC50 (HeLa cells; assay number 16, 4N) [µM] | Hela CellCycMod PI MI IC50/EC50 (HeLa cells; assay number 17, MI) [µM] | Hela CellCycMod PI Cell Number IC50/EC50 (HeLa cells; assay number 18, cell number) [µM] | hKDR LANCE IC50/EC50 (hKDR; assay number 32) [µM] | hJAK2 LANCE IC50/EC50 (hJAK2; assay number 33) [µM] | hp70S6K1 LANCE IC50/EC50 (hp70S6K1 (RPS6KB1); assay number 31) [µM] | hGSK3b LANCE IC50/EC50 (hGSK3b; assay number 34) [µM] | hFLT3 LANCE IC50/EC50 (hFLT3; assay number 35) [µM] | IC50 [1] [µM] | IC50 [2] [µM] | IC50 (HeLa cells; [4]) [µM] | IC50 (HeLa cells; [5]) [µM] | IC50 (HeLa cells; [6]) [µM] | IC50 (HeLa cells; [7]) [µM] | IC50 (hJAK2; [9]) [µM] | IC50 (hp70S6K1 (RPS6KB1); [10]) [µM] | also measured |
| --- | --- | --- | --- | --- | --- | --- | --- | --- | --- | --- | --- | --- | --- | --- | --- | --- | --- | --- | --- | --- | --- |
| COc1cc(-c2ccc(=O)[nH]n2)ccc1OC(F)F [NCGC00016106-13] | > 10 | 1.2205 | > 10 | > 10 | > 10 | > 10 | 0.0092 | > 20 | > 20 | > 20 | > 20 | > 20 | – | – | – | – | – | – | – | – | – |
| Oc1c(I)cc(I)c2cccnc12 [NCGC00018098-07] | – | – | – | – | – | – | – | – | – | – | – | – | > 10 | 2.39 | > 10 | > 10 | > 10 | > 10 | > 20 | > 20 | IC50 (DLD-1; basal): 0.0178 µM; IC50 (HT-29; basal): 0.705 µM; IC50 (SW480; basal): 0.0036 µM; IC50 (SNU-C1): 0.0387 µM; IC50 (hKDR; [8]): > 20 µM; IC50 (RKO; basal): 0.0227 µM; IC50 (hGSK3b; [11]): > 20 µM; IC50 (HCT116): 0.041 µM; IC50 (hFLT3; [12]): > 20 µM; IC50 (Colo320; basal): 0.0213 µM |
| Oc1c(Cl)cc(Cl)cc1Sc1cc(Cl)cc(Cl)c1O [NCGC00018163-10] | – | – | – | – | – | – | – | – | – | – | – | – | > 10 | 1.79 | > 10 | > 10 | > 10 | > 10 | > 20 | > 20 | IC50 (DLD-1; basal): 0.001 µM; IC50 (HT-29; basal): 0.996 µM; IC50 (SW480; basal): 0.001 µM; IC50 (HeLa cells; [13]): > 10 µM; IC50 (SNU-C1): 0.00867 µM; IC50 (RKO; basal): 0.001 µM; IC50 [3]: 0.001 µM; IC50 (hGSK3b; [11]): 6.57 µM; IC50 (HCT116): 0.001 µM; IC50 (hFLT3; [12]): > 20 µM; IC50 (Colo320; basal): 0.015 µM |
| COc1cc([C@@H]2c3cc4c(cc3[C@H](O)[C@H]3COC(=O)[C@H]23)OCO4)cc(OC)c1OC [NCGC00022001-13] | – | – | – | – | – | – | – | – | – | – | – | – | > 10 | 0.0081 | 0.0089 | 0.0077 | 0.0112 | 0.0048 | > 20 | > 20 | IC50 (HeLa cells; [13]): > 10 µM; IC50 (hKDR; [8]): > 20 µM; IC50 (hGSK3b; [11]): > 20 µM; IC50 (hFLT3; [12]): > 20 µM |
| COc1ccc(-c2ccc3cc(C(=O)O)ccc3c2)cc1C12CC3CC(CC(C3)C1)C2 [NCGC00164617-04] | > 10 | 0.5236 | > 10 | > 10 | > 10 | > 10 | 5.4943 | 7.1 | 5.57 | > 20 | 7.25 | > 20 | – | – | – | – | – | – | – | – | Basal_Viability ATP DLD-1 IC50/EC50 (DLD-1; basal): 0.5971 µM; Basal_Viability ATP HT-29 IC50/EC50 (HT-29; basal): 1.1248 µM; Basal_Viability ATP SW480 IC50/EC50 (SW480; basal): 0.4051 µM; Basal_Viability ATP SNU-C1 IC50/EC50 (SNU-C1): 1.7798 µM; Basal_Viability ATP RKO IC50/EC50 (RKO; basal): 0.4435 µM; Basal_Viability ATP HCT116 IC50/EC50 (HCT116): 0.5897 µM; Basal_Viability ATP Colo 320 IC50/EC50 (Colo320; basal): 0.7871 µM |
| C[C@@H]1C[C@@H]([C@H](O)CC2CC(=O)NC(=O)C2)C(=O)[C@@H](C)C1 [NCGC00169964-05] | > 10 | 1.1486 | > 10 | – | > 10 | > 10 | 0.5421 | > 20 | > 20 | > 20 | > 20 | > 20 | – | – | – | – | – | – | – | – | – |
| CC(C)(C)C1CCC(CC2=C(O)c3ccccc3C(=O)C2=O)CC1 (stereo not shown) [NCGC00253624-01] | > 10 | 1.9625 | > 10 | > 10 | > 10 | > 10 | > 10 | > 20 | > 20 | > 20 | > 20 | > 20 | – | – | – | – | – | – | – | – | Basal_Viability ATP DLD-1 IC50/EC50 (DLD-1): 0.2185 µM; Basal_Viability ATP HT-29 IC50/EC50 (HT-29): 3.3906 µM; Basal_Viability ATP SW480 IC50/EC50 (SW480): 0.2047 µM; Basal_Viability ATP RKO IC50/EC50 (RKO): 0.1329 µM; Basal_Viability ATP HCT116 IC50/EC50 (HCT116): 0.2268 µM; Basal_Viability ATP Colo 320 IC50/EC50 (Colo320): 0.2548 µM |
| CCC(C)n1ncn(-c2ccc(N3CCN(c4ccc(OC[C@H]5CO[C@](Cn6cncn6)(c6ccc(Cl)cc6Cl)O5)cc4)CC3)cc2)c1=O (stereo partly shown) [NCGC00274068-01] | > 10 | 1.5488 | > 10 | – | > 10 | > 10 | > 10 | > 20 | > 20 | > 20 | > 20 | > 20 | – | – | – | – | – | – | – | – | – |
| COc1cc2c(c(OC)c1OC)-c1ccc(OC)c(=O)cc1[C@@H](NC(C)=O)CC2 [colchicine] | – | – | – | – | – | – | – | – | – | – | – | – | – | – | – | – | – | – | – | – | IC50 (hKDR): > 20 µM; IC50 (hJAK2): > 20 µM; IC50 (hp70S6K1 (RPS6KB1)): > 20 µM; IC50 (hGSK3b): > 20 µM; IC50 (hFLT3): > 20 µM |
| O=C(CCCCCCC(=O)Nc1ccccc1)NO [vorinostat] | – | – | – | – | – | – | – | – | – | – | – | – | – | – | – | – | – | – | – | – | IC50 (hKDR): > 20 µM; IC50 (hJAK2; kinase assay, read-out: JAK2): > 20 µM; IC50 (hp70S6K1 (RPS6KB1); kinase assay, read-out: p70S6K1): > 20 µM; IC50 (hGSK3b; kinase assay, read-out: GSK3b): > 20 µM; IC50 (hFLT3; kinase assay, read-out: FLT3): > 20 µM |
